From patent publication US6958321B2, “Isolation, characterization, cloning and use of a mushroom lectin” (The Regents of the University of Michigan, priority 2001, dated 2005) come the findings set out here.

Test [1] has as its system MOA. Nature of the test: Quantitative precipitation assay with MOA. Format: binding, Marasmius oreades. As to conditions: 20 μg MOA, PBS pH 7.2, 48 hr at 4° C. Here is the method:
In other embodiments, blood group specificity of MOA is determined by quantitative precipitation assays. Quantitative microprecipitation assays with soluble cyst blood group substances and inhibition of precipitation by sugar haptens were performed as described in Mo et al., [J. Biol. Chem. 275:10623 (2000)].
For quantitative precipitation assays, 20 μg of MOA and increasing amounts of glycoprotein or polysaccharide were used in a total volume of 120 to 200 μL, all in PBS/0.15 M NaCl. Quantitative carbohydrate hapten inhibition assays were conducted by adding increasing amounts of haptens to a mixture of MOA (20 μg) and type B blood group substance (5.0 μg). The reactions were incubated at 37° C. for an hour and then at 4° C. for 48 hours followed by centrifugation of the precipitates, washing, and determination of protein by the Lowry method [Lowry, O. H. et al., J. Biol. Chem. 193, 265-275 (1951)].
Varying amounts of blood group substances from 0 to 200 μg were incubated with 20 μg of MOA in a total volume of 150 μl of PBS (pH 7.2). After 48 hr at 4° C., the amounts of protein precipitated were quantified as described above. Solid squares indicate group A substance, solid circles indicate group B substance, and solid triangles indicate group O substance.
Various amounts of glycoconjugates, ranging from 0 to 100 μg were incubated with 20 μg of lectin in a total volume of 150 μl of PBS (pH 7.2). After 48 hr at 4° C., the amounts of protein precipitated were quantified, as described above. Solid circles indicate MOA interaction with laminin, solid crosses indicate MOA interaction with bovine thyroglobulin, solid squares indicate MOA interaction with C. alata galactomannan, solid triangles indicate MOA interaction with pigeon ovalbumin, open circles indicate MOA interaction with Ga1NAcα1,3Ga1β-polyacrylamide, open squares indicate GS I-B4 interaction with pigeon ovalbumin and closed inverted triangles indicate GS I-B4 interaction with Ga1NAcα1,3Ga1β-polyacrylamide.

In another test the test system is immobilized MOA. Nature of the test: Binding to MOA-Sepharose 4B affinity column. Further details: species or system Marasmius oreades. As to conditions: washed with PBS, eluted with 20 mM diaminopropane. From the text: Further insight into the carbohydrate specificity of MOA was obtained by using immobilized MOA. Immobilization of MOA on a variety of supports is contemplated. In one embodiment, MOA is immobilized on a matrix that can be used in an affinity column (see below). In some embodiments, the matrix comprises Sepharose 4B beads. In some Embodiments, the MOA-conjugated Sepharose 4B beads are packed in a column for binding and affinity isolation and purification studies. Briefly, the MOA-Sepharose column is loaded with glycan, glycoconjugate or serum sample to be tested, then washed with an appropriate buffer (including but not limited to PBS). Bound components are eluted with a suitable elution buffer (including but not limited to 1,3-diaminopropane in NaCl), and the collected fractions are analyzed for the presence of protein or glycan (see Example 6 below). The fractions containing the bound components (eluted as described herein) can be pooled and concentrated.
MOA was immobilized on cyanogen bromide-activated Sepharose 4B as follows. 1.5 g of cyanogen bromide-activated Sepharose 4B was allowed to swell in 100 ml of 1 mM HCl solution for 30 min. The supernatant was removed and the swollen beads (6 ml) were filtered on a sintered funnel, washed several times with 100 ml of 1 mM HCl and finally with 20 ml of 0.1 M sodium bicarbonate buffer, pH 8.3, containing 0.5 M sodium chloride. The beads were quickly transferred to a plastic bottle containing 16.2 mg MOA in the same buffer (10 ml) containing 0.2 M lactose. The plastic bottle was shaken at room temperature for 6 hr and at 4° C. overnight. The beads were filtered on a sintered glass funnel, washed with the coupling buffer, and then shaken in 1 M ethanolamine (12 ml) at room temperature for 2.5 hr to cap all of the unreacted iminocarbonate groups. The beads were filtered, washed alternately with the coupling buffer then sodium acetate buffer (0.1 M, pH 4.0 containing 0.5 M NaCl) four times. A column (1×7 cm) packed with the beads was finally washed with PBS containing 0.04% sodium azide. The beads contained 2.3 mg MOA per ml Sepharose 4B, based on MOA remaining in solution.
In order to assess the binding of various glycans, glycoconjugates and serum samples to MOA-Sepharose, the following general procedure was used. The MOA-Sepharose column was loaded with glycan, glycoconjugate or serum sample (0.6-5 ml) and washed with PBS (15 ml). The bound components were eluted with 20 mM 1,3-diaminopropane in 0.15 M NaCl (15 ml). The fractions collected (1 ml) were neutralized with 1 M phosphoric acid (approximately 16 μl), and analyzed by either absorbance at 280 nm for protein, or by phenol-sulfuric acid assay, as described by Dubois et al. [Anal. Chem. 28: 350 (1956)] for the glycan. The column was finally washed thoroughly with PBS. The fractions containing the bound components were pooled and concentrated by Amicon ultrafiltration (Millipore Corp., Bedford, Mass.) using a membrane (YM10) of 10,000 molecular weight cut-off.

Test [2] relates to MOA. Nature of the test: Sugar ligand binding to MOA (hemagglutination inhibition, hapten inhibition of precipitation, calorimetry). Set-up: species or system Marasmius oreades. As to conditions: binding to MOA in solution. How it is done: All three methods gave approximately the same results, with the calorimetric data being the most precise.
Being a blood type B agglutinin, MOA was assayed primarily against D-galactosyl-terminated sugars and oligosaccharides. […] Methyl α-galactopyranoside was similarly very poor. […] While not limited to any particular mechanism, and with the understanding that knowledge of the underlying mechanism is not required for the practice of the invention, it is believed that recognition of the L-fucosyl moiety is the reason for limited agglutination of human O erythrocytes and a weak precipitin curve with blood group H substance.

Another test addresses T1, recombinant MOA (rMOA) (Marasmius oreades, UniProt Q8X123).
T1 sequence (Q8X123 1-293): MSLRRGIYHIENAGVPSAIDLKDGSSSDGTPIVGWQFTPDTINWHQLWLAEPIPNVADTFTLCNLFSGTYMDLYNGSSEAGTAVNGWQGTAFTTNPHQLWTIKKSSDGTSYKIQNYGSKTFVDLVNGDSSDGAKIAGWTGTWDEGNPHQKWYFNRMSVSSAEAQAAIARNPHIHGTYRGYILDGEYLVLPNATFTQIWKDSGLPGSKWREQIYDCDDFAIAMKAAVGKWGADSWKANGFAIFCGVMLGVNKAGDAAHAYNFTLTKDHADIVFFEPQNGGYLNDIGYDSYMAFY
Nature of the test: Isothermal titration calorimetry, recombinant MOA (rMOA). The test is classed as binding. As to conditions: read-out: Ka, rMOA (converted). Here is the method: (§1) As this volume underfills the titration cell, variable volume calculations were applied, using the Bindworks software installed in the instrument. […] Finally, the trisaccharide L-Fucα1,2Ga1β1,4G1c (fucosyllactose), related to the blood group H trisaccbaride, was assayed. […] While not to be limited to any particular mechanism, it is believed that this may be the reason that MOA recognizes and agglutinates human O erythrocytes to a limited extent, and gives a weak precipitin curve with blood group H substance.
Expression and characterization of recombinant MOA: A full-length PCR product incorporating NdeI and EcoRI into its forward and reverse primers, respectively, was cloned into PCR Blunt II using topoisomerase (Invitrogen) and subsequently shuttled into an IPTG inducible pT7 expression vector (MOApT7LO). Recombinant MOA was expressed in a Nova Blue DE3 strain of E. coli. Expressing bacteria were collected by centrifugation and resuspended in a lysis buffer consisting of 50 mM NaH2PO4, 300 mM NaCl, 10 mM imidizole, 10mM 2-mercaptoethanol, 1 mM phenylmethylsulfonyl fluoride, 1% NP-40, and a protease inhibitor cocktail. The extract was twice run through a french press. The insoluble fraction was removed by centrifugation (10,000×g, 15 min).
(§2) Purification of recombinant MOA and native intact MOA-Recombinant MOA was purified from the soluble fraction by absorption on a column of melibiose-Sepharose and elution by lactose. Further purification was carried out on an affinity column of Synsorb B. Except for the diaminopropane elution, all affinity purifications were carried out in PBS, pH 7.2, containing 1.25 mM EDTA. After purification, lectin solutions were dialyzed against distilled water and lyophilized. […] Intact native MOA was prepared with a purification procedure (Example 2) that utilized a protease inhibitor cocktail (product P8215, Sigma, St. Louis, Mo.) which was added at the level of 0.1 ml/100 ml extract buffer (instead of phenylmethylsulfonyl fluoride), all buffers lacked Ca^++ and contained 1.25 mM EDTA, and the initial extraction and ammonium sulfate fractionations were carried out under an atmosphere of argon.
(§3) Binding constants of several relevant oligosaccharides to recombinant and intact native MOA were determined calorimetrically.
A general note: In ITC the heat of successive injections is recorded.

In test [3] the target is T2, Marasmius oreades lectin (MOA, cMOA) (Marasmius oreades, UniProt Q8X123).
T2 sequence (Q8X123 1-293): T1 sequence (Q8X123 1-293)
Nature of the test: Isothermal titration calorimetry, MOA of Example 1 (proteolyzed, clipped form, cMOA). The test is classed as binding.

The target in the next test is T3, intact native MOA (nMOA) (Marasmius oreades, UniProt Q8X123).
T3 sequence (Q8X123 1-293): T1 sequence (Q8X123 1-293)
Briefly: Isothermal titration calorimetry, intact native MOA (nMOA). As to conditions: read-out: Ka, nMOA (converted). The test is classed as binding. How it is done: as §1, §2, §3

The target of test [4] is T4, alpha-Galactosidase-digested alpha2-macroglobulin glycoprotein (from volunteer 4) (human, UniProt P01023 24-1474, terminal alpha-galactose removed with alpha-galactosidase).
T4 construct: mature; also called alpha-Galactosidase-digested glycoprotein from volunteer 4; treated fractions containing principally alpha2-macroglobulin
T4 sequence (looked up): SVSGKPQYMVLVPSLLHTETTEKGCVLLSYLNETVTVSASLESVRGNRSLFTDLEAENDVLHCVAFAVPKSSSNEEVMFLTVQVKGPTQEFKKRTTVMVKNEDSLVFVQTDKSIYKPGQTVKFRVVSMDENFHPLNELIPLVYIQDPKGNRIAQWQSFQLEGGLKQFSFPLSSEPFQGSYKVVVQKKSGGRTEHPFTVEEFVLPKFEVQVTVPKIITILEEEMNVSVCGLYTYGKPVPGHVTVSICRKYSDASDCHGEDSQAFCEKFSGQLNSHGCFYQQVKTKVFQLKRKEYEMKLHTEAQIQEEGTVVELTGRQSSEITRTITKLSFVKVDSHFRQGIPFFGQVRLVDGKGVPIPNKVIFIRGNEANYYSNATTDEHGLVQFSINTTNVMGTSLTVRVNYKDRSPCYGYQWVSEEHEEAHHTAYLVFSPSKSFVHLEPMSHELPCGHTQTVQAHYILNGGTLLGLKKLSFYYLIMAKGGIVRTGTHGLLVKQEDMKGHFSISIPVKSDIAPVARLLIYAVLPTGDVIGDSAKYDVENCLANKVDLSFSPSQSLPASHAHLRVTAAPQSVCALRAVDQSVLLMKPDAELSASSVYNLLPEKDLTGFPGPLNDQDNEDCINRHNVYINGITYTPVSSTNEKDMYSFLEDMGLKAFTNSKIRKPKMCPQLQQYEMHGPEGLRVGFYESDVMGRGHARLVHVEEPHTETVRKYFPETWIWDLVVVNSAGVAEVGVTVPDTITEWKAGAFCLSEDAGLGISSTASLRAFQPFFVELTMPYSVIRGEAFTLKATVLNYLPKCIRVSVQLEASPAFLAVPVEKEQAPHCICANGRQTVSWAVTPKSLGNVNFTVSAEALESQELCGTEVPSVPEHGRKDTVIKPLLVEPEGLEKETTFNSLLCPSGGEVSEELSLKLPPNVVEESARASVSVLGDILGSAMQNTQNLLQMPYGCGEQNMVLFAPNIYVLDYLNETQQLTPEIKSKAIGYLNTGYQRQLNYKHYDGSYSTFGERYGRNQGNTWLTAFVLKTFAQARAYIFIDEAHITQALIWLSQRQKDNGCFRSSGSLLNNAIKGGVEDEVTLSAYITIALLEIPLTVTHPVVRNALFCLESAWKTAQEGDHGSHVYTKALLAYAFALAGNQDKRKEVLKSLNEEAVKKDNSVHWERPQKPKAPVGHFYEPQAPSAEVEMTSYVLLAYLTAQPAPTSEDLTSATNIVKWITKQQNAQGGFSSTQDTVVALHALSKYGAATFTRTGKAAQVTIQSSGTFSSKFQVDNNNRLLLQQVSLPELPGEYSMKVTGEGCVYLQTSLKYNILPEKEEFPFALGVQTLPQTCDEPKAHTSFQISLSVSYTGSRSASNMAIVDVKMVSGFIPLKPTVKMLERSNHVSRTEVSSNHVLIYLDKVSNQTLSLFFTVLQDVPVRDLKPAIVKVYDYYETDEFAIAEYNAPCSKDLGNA
Briefly: agar gel diffusion, precipitin.

[5] abbreviates: isothermal titration calorimetry.
[6] abbreviates: isothermal titration calorimetry, Table 3.

“laminin: Laminin purified from the EHS sarcoma, with Galα1,3Galβ1,4GlcNAc end groups”: in the test with MOA [1], the “precipitation with MOA” value was “reacted strongly”. Moreover, the “binding to MOA-Sepharose column” value in the test on immobilized MOA is “bound tightly”.

With “bovine thyroglobulin: bovine thyroglobulin, with Galα1,3Galβ1,4GlcNAc end groups”, the “precipitation with MOA” value in the test on MOA [1] is reported as “reacted strongly”. Also, the “binding to MOA-Sepharose column” value in the test on immobilized MOA is recorded as “bound tightly”.

Consider `OC[C@H]1O[C@H](O[C@H]2[C@@H](O)[C@@H](CO)OC(O)[C@@H]2O)[C@H](O)[C@@H](O)[C@H]1O` (stereo partly shown) [Galα1,3Gal], for which the “ligand binding” value in the test with MOA [2] is listed as “excellent ligand”. The Kd on recombinant MOA (rMOA) is 37.5 µM. Moreover, in test [3], the “affinity constant relative to that for Meα-Gal” value is given as 44 fold. Also, in test [3] (setting [5]), the Ka is 6000 M⁻¹, the Kd came to 182 µM, the TΔS is 15.0 kcal/mol and the “−ΔG” value was found to be 5.05 kcal/mol. In test [3] (setting [5]), the “−ΔH” value was determined as 20.1 kcal/mol. Moreover, in test [3] (setting [6]), the Ka was 5.48 10^3 M^−1 and the “ligand binding” value was “excellent ligand”. The “Ka, cMOA” value in test [3] (proteolyzed (clipped) native lectin, Table 6) was 5.48 10^3 M^−1. Further, on intact native MOA (nMOA), the Kd is 36.6 µM.

For the molecule Galactomannan, the “precipitation with MOA” value with MOA [1] is on record as “did not precipitate”. For the same molecule, the “binding to MOA-Sepharose column” value in the test on immobilized MOA is reported as “failed to bind”.

B1: Ulex europaeus I lectin (other, UniProt P22972 1-243, looked up)
chain: SDDLSFKFKNFSQNGKDLSFQGDASVIETGVLQLNKVGNNLPDETGGIARYIAPIHIWNCNTGEVASFITSFSFFMETSANPKAATDGLTFFLAPPDSPLRRAGGYFGLFEDTKDNDSSYQTVAVEFDTIGSPVNFDDPGFPHIGIDVNRVKSINAERWNKRYGLNNVANVEIIYEASSKTLTASLTYPSDQTSISVTSIVDLKEILPEWVSVGFSGGTYIGRQATHEVLNWYFTSNLINTNS
notes: also called Ulex I
On to B1, for which the binding result in test [4] is given as “binds”.
